# According to paper PMC6422423, “Constitutively active BRS3 is a genuinely orphan GPCR in placental mammals” (PLoS Biology, 2019):
# Columns and labels:
# [1] = tested on: turtle BRS3 (tBRS3); test: Intracellular calcium assay (WT and mutants); format: cell-based, Chrysemys picta; settings: 10 nM peptide; for Calcium fold: HEK293, Fluo8, tBRS3; for Intracellular Ca2+, mutants vs wild type (in words): tBRS3 Q127R, P205S, and R294H, each
# Method: (§1) Intracellular calcium was measured using the non-wash calcium assay Fluo8 kit (ab112129, Abcam) according to the manufacturer’s instructions. Briefly, HEK293 cells were seeded in 24-well plates and were transfected with GRPR, NMBR, BRS3, or the empty vector plasmid pcDNA3.1-V5-His (300 ng) and incubated overnight at 37°C with 5% CO2. The next day, the cells were replated into a 96-well assay plate (black plate and clear bottom). After 12 h, growth media were aspirated, and calcium dye was added. […] The basal fluorescence intensity was recorded 15 times at 1 Hz for […]. The results were normalized to the average basal fluorescence intensity in ratio, and the peak response was used for the result calculation. Calcium fold was calculated using no stimulation data as standard value.
# [2] = tested on: BRS3 receptors in nonplacental vertebrates; test: ERK1/2 phosphorylation, nonplacental pooled; format: cell-based, koala, platypus, chicken, turtle, frog, and spotted gar; settings: 1,000 nM peptide, 0/2/5 min, HEK293
# Method: (§2) For ERK1/2 phosphorylation, HEK293 cells were seeded in 24-well plates and transfected with GRPR, NMBR, BRS3, mutants of different species’ BRS3, or an empty vector plasmid, pcDNA3.1-V5-His plasmid (300 ng). […] Each sample with an equal amount of protein was mixed with 6×SDS sample buffer, boiled for 5 min, and separated on 10% SDS-polyacrylamide gel electrophoresis (PAGE) before transferring the proteins onto a PVDF membrane. The membranes were then blocked at room temperature for 1 h with 5% milk powder in Tris-buffered saline-Tween (TBST), followed by subsequent incubation at 4°C overnight in TBST containing the different primary antibodies (1:1,000 dilution). After washing three times (10 min each time) with TBST, the membranes were incubated for 1 h in TBST containing the secondary antibodies (1:2,000 dilution), followed by washing three times (10 min each time) with TBST, prior to detection by chemiluminescence.
# [3] = tested on: aardvark BRS3 (aBRS3); test: Intracellular calcium assay (WT and mutants); format: cell-based, Orycteropus afer; settings: for Calcium fold: 10 nM peptide, HEK293, Fluo8, aBRS3; for Intracellular Ca2+, mutants (in words): aBRS3 R127Q, S205P, and H294R, all three
# Method: as §1
# [4] = tested on: spotted gar BRS3 (sBRS3); test: Intracellular calcium assay (WT and mutants); format: cell-based, Lepisosteus oculatus; settings: for Calcium fold: 10 nM peptide, HEK293, Fluo8, sBRS3; for Intracellular Ca2+, mutants (in words): sBRS3 Q127R, P205S, and R294H
# Method: as §1
# [5] = tested on: human BRS3 (hBRS3); test: ERK1/2 phosphorylation (WT and mutants); format: cell-based
# Method: as §2
# [6] = tested on: mouse BRS3 (mBRS3); test: ERK1/2 phosphorylation (WT and mutants); format: cell-based; settings: mBRS3 R127Q, S205P, and H294R, all three
# Method: as §2
# [7] = tested on: human BRS3 (hBRS3); test: Intracellular calcium assay (WT and mutants); format: cell-based; settings: 10 nM peptide; for Calcium fold: HEK293, Fluo8, hBRS3; for Intracellular Ca2+, mutants vs wild type (in words): hBRS3 R127Q, S205P, and H294R, each
# Method: as §1
# [8] = tested on: mouse BRS3 (mBRS3); test: Intracellular calcium assay (WT and mutants); format: cell-based; settings: for Calcium fold: 10 nM peptide, HEK293, Fluo8, mBRS3; for Intracellular Ca2+, mutants (in words): mBRS3 R127Q, S205P, and H294R, all three
# Method: as §1
# [9] = tested on: turtle BRS3 (tBRS3); test: ERK1/2 phosphorylation (WT and mutants); format: cell-based, Chrysemys picta
# Method: as §2
# [10] = tested on: aardvark BRS3 (aBRS3); test: ERK1/2 phosphorylation (WT and mutants); format: cell-based, Orycteropus afer; settings: aBRS3 R127Q, S205P, and H294R, all three
# Method: as §2
# [11] = molecular target: turtle BRS3 (tBRS3); test: Radioligand binding (competition); set-up: species or system Chrysemys picta; settings: transfected HEK293 cells, 1 h 21°C, pH 7.4, mean ± SE, at least three experiments
# Method: HEK293 cells were seeded in a 10-cm tissue culture dish at a density of 10^6 cells per dish and grown overnight at 37°C in growth medium. The following morning, 5 μg of different species’ BRS3 plasmids were transfected. After 6 h, the medium was replaced with growth medium. Cells were maintained at 37°C in a 5% CO2 atmosphere and used 48 h later for binding assays. The positive control group included transfected GRPR and NMBR; the test group consisted of transfected BRS3 from different species. Then, [^125I]-Tyr^42-GRP and [^125I]-Tyr-NMB were used as the ligands to assess affinity to the various receptors. […] The cell concentration was adjusted to between 0.05 and 4 × 10^6 cells/ml for each receptor such that less than 20% of the total added radioactive ligand was bound during the incubation, and the results were compared to cells transfected with GRPR or NMBR adjusted in concentration to bind a similar amount of ligand. After the incubation, 100 μl aliquots were added to 1.5-ml microfuge tubes, which contained 100 μl of binding buffer to determine the total radioactivity. The bound tracer was separated from unbound tracer by pelleting the cells through the binding buffer by centrifugation at 10,000g in a Microfuge E (Beckman) for 3 min. The supernatant was aspirated, and the pelleted cells were rinsed twice with a washing buffer that contained 1% (w/v) BSA in PBS. The amount of radioactivity bound to the cells was measured in a Cobra II Gamma counter (Packard Instruments). Binding was expressed as the percentage of total radioactivity that was associated with the cell pellet. All binding values represented saturable binding; nonsaturable binding was <15% of the total binding in all experiments. Each point was measured in duplicate, and each experiment was replicated at least four times. […] All the experiment data were calculated using 1 pM ligand-treated as 100% control.
# [12] = tested on: chicken BRS3 (cBRS3); test: Intracellular calcium assay (WT and mutants); format: cell-based, Gallus gallus; settings: 10 nM peptide, HEK293, Fluo8, cBRS3
# Method: as §1
# [13] = tested on: BRS3 receptors in placental mammals; test: ERK1/2 phosphorylation, placental pooled; format: cell-based, human, mouse, dog, and aardvark; settings: 1,000 nM peptide, 0/2/5 min, HEK293
# Method: as §2
# [14] = molecular target: T1, GRPR (Homo sapiens, UniProt P30550); test: Radioligand binding (competition); settings: [125I]-Tyr42-GRP
# T1 construct: HA; expressed in transfected cells; host or cells: HEK293
# Method: HEK293 cells were seeded in a 10-cm tissue culture dish at a density of 10^6 cells per dish and grown overnight at 37°C in growth medium. The following morning, 5 μg of different species’ BRS3 plasmids were transfected. After 6 h, the medium was replaced with growth medium. Cells were maintained at 37°C in a 5% CO2 atmosphere and used 48 h later for binding assays. The positive control group included transfected GRPR and NMBR; the test group consisted of transfected BRS3 from different species. Then, [^125I]-Tyr^42-GRP and [^125I]-Tyr-NMB were used as the ligands to assess affinity to the various receptors. […] After the incubation, 100 μl aliquots were added to 1.5-ml microfuge tubes, which contained 100 μl of binding buffer to determine the total radioactivity. […] The amount of radioactivity bound to the cells was measured in a Cobra II Gamma counter (Packard Instruments). Binding was expressed as the percentage of total radioactivity that was associated with the cell pellet. […] Each point was measured in duplicate, and each experiment was replicated at least four times. […] All the experiment data were calculated using 1 pM ligand-treated as 100% control.
# [15] = tested on: chicken BRS3 (cBRS3); test: ERK1/2 phosphorylation (WT and mutants); format: cell-based, Gallus gallus; settings: cBRS3 P205S; exception to the significant effects
# Method: as §2
# T1 sequence (P30550 whole entry, species assumed): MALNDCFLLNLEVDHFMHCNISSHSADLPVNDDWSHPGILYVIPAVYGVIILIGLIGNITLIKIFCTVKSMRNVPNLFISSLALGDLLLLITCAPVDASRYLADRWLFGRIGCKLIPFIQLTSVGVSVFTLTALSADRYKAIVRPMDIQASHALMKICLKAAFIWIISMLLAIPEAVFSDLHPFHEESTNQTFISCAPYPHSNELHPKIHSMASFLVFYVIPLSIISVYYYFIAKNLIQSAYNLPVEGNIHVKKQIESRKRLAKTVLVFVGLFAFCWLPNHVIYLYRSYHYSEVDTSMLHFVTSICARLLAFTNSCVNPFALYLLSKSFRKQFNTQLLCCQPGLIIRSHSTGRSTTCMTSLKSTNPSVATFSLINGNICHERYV
substance,measurement,setting,value
"GSHWAVGHLM-NH2 [GRP, gastrin-releasing peptide]",Calcium fold,[1]; replicate 1,5.1678 fold
same,Calcium fold,[1]; replicate 2,5.2199 fold
same,Calcium fold,[1]; replicate 3,5.5876 fold
same,"Intracellular Ca2+, mutants vs wild type (in words)",[1],remarkable decrease of cellular Ca^2+ ions
same,ERK phosphorylation (in words),[2],increase in the levels of phosphorylated ERK
same,Calcium fold,[3]; replicate 1,1.0918 fold
same,Calcium fold,[3]; replicate 2,1.1902 fold
same,Calcium fold,[3]; replicate 3,1.2372 fold
same,"Intracellular Ca2+, mutants (in words)",[3],significant increase in cellular Ca^2+ ions levels
same,Calcium fold,[4]; replicate 1,4.5257 fold
same,Calcium fold,[4]; replicate 2,4.9378 fold
same,Calcium fold,[4]; replicate 3,5.3682 fold
same,"Intracellular Ca2+, mutants (in words)",[4],significant effects
same,"ERK phosphorylation, mutant (in words)",[5]; hBRS3 H294R,could be detected
same,"ERK phosphorylation, mutant (in words)",[5]; hBRS3 R127Q,could be detected
same,"ERK phosphorylation, mutant (in words)",[5]; hBRS3 S205P,the effect is not obvious
same,"ERK phosphorylation, mutants (in words)",[6],lead to ERK phosphorylation signal
same,Calcium fold,[7]; replicate 1,1.1274 fold
same,Calcium fold,[7]; replicate 2,1.2515 fold
same,Calcium fold,[7]; replicate 3,1.1684 fold
same,"Intracellular Ca2+, mutants vs wild type (in words)",[7],remarkable increase of cellular Ca^2+ ions
same,Calcium fold,[8]; replicate 1,1.0113 fold
same,Calcium fold,[8]; replicate 2,1.0374 fold
same,Calcium fold,[8]; replicate 3,1.111 fold
same,"Intracellular Ca2+, mutants (in words)",[8],significant increase in cellular Ca^2+ ions levels
same,"ERK phosphorylation, mutant (in words)",[9]; tBRS3 P205S,the effect is not obvious
same,"ERK phosphorylation, mutant (in words)",[9]; tBRS3 Q127R,almost could not be detected
same,"ERK phosphorylation, mutant (in words)",[9]; tBRS3 R294H,almost could not be detected
same,"ERK phosphorylation, mutants (in words)",[10],lead to ERK phosphorylation signal
same,IC50,[11]; 50 pM [125I]-Tyr42-GRP,0.14 nM
same,IC50,[11]; 50 pM [125I]-Tyr-NMB,0.28 nM
same,Calcium fold,[12]; replicate 1,5.1641 fold
same,Calcium fold,[12]; replicate 2,5.5593 fold
same,Calcium fold,[12]; replicate 3,5.8165 fold
same,ERK phosphorylation (in words),[13],could not be activated
neuromedin B [NMB],"Intracellular Ca2+, mutants vs wild type (in words)",[1],remarkable decrease of cellular Ca^2+ ions
same,ERK phosphorylation (in words),[2],increase in the levels of phosphorylated ERK
same,"Intracellular Ca2+, mutants (in words)",[3],significant increase in cellular Ca^2+ ions levels
same,"Intracellular Ca2+, mutants (in words)",[4],significant effects
same,"ERK phosphorylation, mutant (in words)",[5]; hBRS3 H294R,could be detected
same,"ERK phosphorylation, mutant (in words)",[5]; hBRS3 R127Q,could be detected
same,"ERK phosphorylation, mutant (in words)",[5]; hBRS3 S205P,the effect is not obvious
same,"ERK phosphorylation, mutants (in words)",[6],lead to ERK phosphorylation signal
same,"Intracellular Ca2+, mutants vs wild type (in words)",[7],remarkable increase of cellular Ca^2+ ions
same,"Intracellular Ca2+, mutants (in words)",[8],significant increase in cellular Ca^2+ ions levels
same,"ERK phosphorylation, mutant (in words)",[9]; tBRS3 P205S,the effect is not obvious
same,"ERK phosphorylation, mutant (in words)",[9]; tBRS3 Q127R,almost could not be detected
same,"ERK phosphorylation, mutant (in words)",[9]; tBRS3 R294H,almost could not be detected
same,"ERK phosphorylation, mutants (in words)",[10],lead to ERK phosphorylation signal
same,IC50,[11]; 50 pM [125I]-Tyr42-GRP,1.14 nM
same,IC50,[11]; 50 pM [125I]-Tyr-NMB,2.82 nM
same,Inhibition of GRPR–GRP binding (in words),[14],very low affinity
same,ERK phosphorylation (in words),[13],could not be activated
same,"ERK phosphorylation, mutant (in words)",[15],excepting P205S of cBRS3 for ERK phosphorylation activated by NMB
